Data reported in patent US10144742B2 (Millennium Pharmaceuticals, Inc., priority 2014, dated 2018).
Read-outs that look alike come from different tables or passages of the source.

Legend:
hNAMPT protein = hNAMPT protein (Homo sapiens (Human), UniProt P43490); test: NAMPT enzyme assay (TR-FRET/HTRF, BodiPY ligand, anti 6His-Tb); format: binding; details: for IC50: read-out: IC50; for inhibition at 1 µM: read-out: Percent Inhibition
Outline: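 Compound or DMSO was incubated for 1 h at room temperature, protected from light, with BodiPY ligand and hNAMPT labelled by terbium anti-6His antibody. The 520 nm to 486 nm emission ratio after 320 nm excitation gave inhibition versus vehicle, from which concentration-response curves yielded IC50.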

PC3 cells = test: PC3 growth inhibition (Cell-titer glo, 72 hours); format: cell-based; details: Homo sapiens, PC-3, PC3 cells, 72 hours, Cell-titer glo, read-out: Percent Inhibition (PC3 growth inhibition); for inhibition at 1.667 µM: compound concentration 1.667 μM; for inhibition at 1 µM: compound concentration 1 μM
Outline: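 Compounds in AIM serum-free medium were applied for 72 h at 37 °C, 5% CO2 to PC3 cells plated overnight from RPMI1640 culture. Luminescence after 10 min CellTiter-Glo, normalised to DMSO, gave % viability at 1 μM or 1.667 μM, or GI50/LD50.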

[1] = NAMPT inhibition at compound concentration 1 μM
[2] = NAMPT inhibition, IC50 range class

Chain of hNAMPT protein (P43490 whole entry): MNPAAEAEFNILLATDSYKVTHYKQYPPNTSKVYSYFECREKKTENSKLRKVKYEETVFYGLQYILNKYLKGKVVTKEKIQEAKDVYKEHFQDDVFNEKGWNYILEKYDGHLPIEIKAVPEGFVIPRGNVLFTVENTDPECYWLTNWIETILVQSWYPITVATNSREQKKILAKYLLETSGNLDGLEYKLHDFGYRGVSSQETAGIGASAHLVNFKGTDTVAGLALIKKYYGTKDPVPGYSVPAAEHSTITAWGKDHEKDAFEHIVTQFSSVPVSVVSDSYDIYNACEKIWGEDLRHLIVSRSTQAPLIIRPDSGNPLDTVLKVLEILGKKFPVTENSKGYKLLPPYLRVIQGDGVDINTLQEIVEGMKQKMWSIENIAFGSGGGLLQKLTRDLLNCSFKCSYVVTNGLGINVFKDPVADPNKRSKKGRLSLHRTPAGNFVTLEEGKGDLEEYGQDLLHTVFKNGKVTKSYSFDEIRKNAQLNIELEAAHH

Row | Compound | IC50 (hNAMPT protein; NAMPT IC50 range class) | inhibition at 1 µM (hNAMPT protein; compound concentration 1 μM) | inhibition at 1.667 µM (PC3 cells) | inhibition at 1 µM (PC3 cells) | inhibition at 1 µM (hNAMPT protein; [1]) | IC50 (hNAMPT protein; [2])
1 | Cc1ccc(Cl)c(-c2nc3cc(C(=O)NCCCc4ncc[nH]4)ccc3nc2-c2ccc(F)cc2)c1 [Compound I-365, 3-(2-chloro-5-methylphenyl)-2-(4-fluorophenyl)-N-[3-(1H-imidazol-2-yl)propyl]quinoxaline-6-carboxamide] | < 100 nM | 97% | 1% | – | – | –
2 | CN(C)c1nc2ccc(C(=O)NCCc3cncn3C)cc2nc1-c1ccc(F)cc1 [Compound I-58, 2-(dimethylamino)-3-(4-fluorophenyl)-N-[2-(1-methyl-1H-imidazol-5-yl)ethyl]quinoxaline-6-carboxamide] | 500 to 1000 nM | 64% | 50% | – | – | –
3 | O=C(NCCCc1ncc[nH]1)c1ccc2nc(-c3ccc(F)cc3)c(-c3cccc(Cl)c3F)nc2c1 [Compound I-312, 3-(3-chloro-2-fluorophenyl)-2-(4-fluorophenyl)-N-[3-(1H-imidazol-2-yl)propyl]quinoxaline-6-carboxamide] | < 100 nM | 94% | 2% | – | – | –
4 | O=C(NCCCn1ccnc1)c1ccc2nc(-c3ccccc3)c(N3CCn4ccnc4C3)nc2c1 [Compound I-283, 3-(5,6-dihydroimidazo[1,2-a]pyrazin-7(8H)-yl)-N-[3-(1H-imidazol-1-yl)propyl]-2-phenylquinoxaline-6-carboxamide] | 2000 to 10000 nM | 12% | – | 100% | – | –
5 | Cc1ccc(-c2nc3cc(C(=O)NCCCc4ncc[nH]4)ccc3nc2-c2ccc(F)cc2)cn1 [Compound I-486, 2-(4-fluorophenyl)-N-[3-(1H-imidazol-2-yl)propyl]-3-(6-methylpyridin-3-yl)quinoxaline-6-carboxamide] | – | – | 2% | – | 78% | 100 to 500 nM
6 | CS(=O)(=O)c1cccc(-c2nc3ccc(C(=O)NCCCn4ccnc4)cc3nc2-c2ccccc2)c1 [Compound I-182, N-[3-(1H-imidazol-1-yl)propyl]-2-[3-(methylsulfonyl)phenyl]-3-phenylquinoxaline-6-carboxamide] | 100 to 500 nM | 83% | – | -7% | – | –
7 | COc1cccc(-c2nc3ccc(C(=O)NCCCn4ccnc4)cc3nc2-c2ccccc2)c1 [Compound I-187, N-[3-(1H-imidazol-1-yl)propyl]-2-(3-methoxyphenyl)-3-phenylquinoxaline-6-carboxamide] | 100 to 500 nM | 84% | – | -8% | – | –
8 | Cc1ccc(-c2nc3ccc(C(=O)NCCCn4ccnc4)cc3nc2-c2ccc(C)cc2)cc1 [Compound I-214, N-[3-(1H-imidazol-1-yl)propyl]-2,3-bis(4-methylphenyl)quinoxaline-6-carboxamide] | 1000 to 2000 nM | 40% | – | 0% | – | –
9 | O=C(NCCCn1ccnc1)c1ccc2nc(C3=CCCCC3)c(-c3ccccc3)nc2c1 [Compound I-240, 2-(cyclohex-1-en-1-yl)-N-[3-(1H-imidazol-1-yl)propyl]-3-phenylquinoxaline-6-carboxamide] | 100 to 500 nM | 83% | – | -8% | – | –
10 | O=C(NCc1ccc2nccn2c1)c1ccc2nc(-c3ccc(Cl)cc3)c(-c3ccc(Cl)cc3)nc2c1 [Compound I-487, 2,3-bis(4-chlorophenyl)-N-(imidazo[1,2-a]pyridin-6-ylmethyl)quinoxaline-6-carboxamide] | – | – | 1% | – | 70% | 100 to 500 nM
11 | O=C(c1ccc2nc(-c3ccc(F)cc3)c(-c3ccc(F)cc3)nc2c1)N1CCC(c2cccnc2)C1 (stereo not drawn) [Compound I-29, [2,3-bis(4-fluorophenyl)quinoxalin-6-yl][3-(pyridin-3-yl)pyrrolidin-1-yl]methanone] | 2000 to 10000 nM | 36% | – | 96% | – | –
12 | CC(C)Oc1cc(-c2nc3cc(C(=O)NCCCc4ncc[nH]4)ccc3nc2-c2ccc(F)cc2)c(F)cn1 [Compound I-518, 3-(5-fluoro-2-isopropoxypyridin-4-yl)-2-(4-fluorophenyl)-N-[3-(1H-imidazol-2-yl)propyl]quinoxaline-6-carboxamide] | – | – | 1% | – | 86% | 100 to 500 nM
13 | O=C(NCCCc1ncc[nH]1)c1ccc2nc(-c3ccc(F)cc3)c(-c3cc(C(F)(F)F)ccc3Cl)nc2c1 [Compound I-381, 3-[2-chloro-5-(trifluoromethyl)phenyl]-2-(4-fluorophenyl)-N-[3-(1H-imidazol-2-yl)propyl]quinoxaline-6-carboxamide] | < 100 nM | 96% | 2% | – | – | –
14 | O=C(c1ccc2nc(-c3ccc(F)cc3)c(-c3ccc(F)cc3)nc2c1)N1CCc2[nH]nc(O)c2C1 [Compound I-285, [2,3-bis(4-fluorophenyl)quinoxalin-6-yl](3-hydroxy-1,4,6,7-tetrahydro-5H-pyrazolo[4,3-c]pyridin-5-yl)methanone] | 2000 to 10000 nM | 7% | – | 97% | – | –
15 | O=C(NCCc1c[nH]cn1)c1ccc2nc(-c3ccccc3)c(-c3ccccc3)nc2c1 [Compound I-118, N-[2-(1H-imidazol-4-yl)ethyl]-2,3-diphenylquinoxaline-6-carboxamide] | 2000 to 10000 nM | 29% | – | 85% | – | –
16 | O=C(NCCCc1ncc[nH]1)c1ccc2nc(OC3COC3)c(-c3ccc(Cl)cc3)nc2c1 [Compound I-318, 3-(4-chlorophenyl)-N-[3-(1H-imidazol-2-yl)propyl]-2-(oxetan-3-yloxy)quinoxaline-6-carboxamide] | < 100 nM | 97% | 2% | – | – | –
17 | O=C(NCCc1c[nH]cn1)c1ccc2nc(-c3ccc(F)cc3)c(-c3ccc(F)cc3)nc2c1 [Compound I-20, 2,3-bis(4-fluorophenyl)-N-[2-(1H-imidazol-4-yl)ethyl]quinoxaline-6-carboxamide] | 1000 to 2000 nM | 42% | – | 111% | – | –
18 | O=C(NCCCn1ccnc1)c1ccc2nc(N3CCCCC3)c(-c3ccccc3)nc2c1 [Compound I-161, N-[3-(1H-imidazol-1-yl)propyl]-3-phenyl-2-(piperidin-1-yl)quinoxaline-6-carboxamide] | < 100 nM | 89% | – | -7% | – | –
19 | Cn1cnc2c1CN(C(=O)c1ccc3nc(-c4ccc(F)cc4)c(-c4ccc(F)cc4)nc3c1)CC2 [Compound I-33, [2,3-bis(4-fluorophenyl)quinoxalin-6-yl](3-methyl-3,4,6,7-tetrahydro-5H-imidazo[4,5-c]pyridin-5-yl)methanone] | 2000 to 10000 nM | 20% | – | 92% | – | –
20 | O=C(NCCCn1ccnc1)c1ccc2nc(N3CCC4(CC3)COC4)c(-c3ccccc3)nc2c1 [Compound I-30, N-[3-(1H-imidazol-1-yl)propyl]-2-(2-oxa-7-azaspiro[3.5]non-7-yl)-3-phenylquinoxaline-6-carboxamide] | 100 to 500 nM | 83% | – | -7% | – | –
21 | COc1cc(OC)cc(-c2nc3cc(C(=O)NCCCn4ccnc4)ccc3nc2-c2ccccc2)c1 [Compound I-245, 3-(3,5-dimethoxyphenyl)-N-[3-(1H-imidazol-1-yl)propyl]-2-phenylquinoxaline-6-carboxamide] | 500 to 1000 nM | 62% | – | -8% | – | –
